Results as given in US20230390176A1, “Cosmetic Skin and Medical Cream” (Protecta-Skincare, Inc., priority 2021, published 2023).

Experiments:
human keratinocytes = experiment: lifespan of human keratinocytes with YEL002; format: cell-based; settings: application of the active ingredient YEL002
[1] = disclosed in U.S. Pat. No. 9,045,474; cited from earlier work

COc1ccc2cc(-c3nc4ccc(C)cn4c3NCc3ccco3)c(=O)[nH]c2c1 [YEL002]
human keratinocytes live longer (anti-aging) (human keratinocytes): 15%
mitigating tissue damage induced by an agent [1]: effective in mitigating tissue damage
